Measured values taken from patent US20080010691A1, “Method of Screening Therapeutic Agent for Irritable Bowel Syndrome” (priority 2005, published 2008).
Where a name gives a salt, the structure may show the parent alone. Marks after values point to notes of the source that are not given here.

Legend:
[1] = test system: conditioned fear stressed animal model (abnormal evacuation); assay: Conditioned fear stress (CFS)-induced abnormal evacuation, wet feces weight; type: in vivo, rat; settings: oral administration 1 hour before CFS loading; 30 minutes CFS; linear regression, n=12
Description: (§1) Male Sprague-Dawley rats (6 weeks of age, CLEA Japan) were used. The rats which passed 1 week or more after their receipt were divided into groups of 12 animals per group in such a manner that their average values and standard deviations of body weight became almost the same. The electric shock conditions were set in accordance with the results of preliminary examinations. That is, the rats were put into an electric shock device (17×17×39 cm, CB 2000 type, O'Hara) having an electrode set in the floor, and after 3 seconds of warning sound, their conditioning was carried out by applying an electric current of 2 mA at the maximum for 5 seconds per once per minute, a total of 15 times, and irradiating light at the time of the electric shock using 3 electric bulbs of 40 w. The control group was put into the electric shock device by the same protocol, but without applying the electric shock. From 18 to 24 hours thereafter, each drug to be tested was orally administered to each animal by force at a dose of 5 mL/kg, they were again put into the electric shock device 1 hour thereafter, and then a conditioned fear stress (CFS) loading was carried out by applying 3 seconds of warning sound and subsequent 5 seconds of light irradiation for 30 minutes.
The number of evacuations was recorded after 2, 4, 6, 8, 10, 15, 20, 25 and 30 minutes of the commencement of the CFS loading, and wet weights of feces were measured by recovering the feces at the time of the completion of the measurement. In addition, the feces were dried at 70° C. for 22 hours and then their dry weights were measured to calculate the moisture content. In this connection, the evacuations just after putting them into the measuring device were excluded from the measured values of the number of evacuations and feces weights.

[2] = test system: conditioned fear stressed animal model (distal large intestine transport); assay: Distal large intestine transport ability by beads discharge method after CFS loading; type: in vivo, rat; settings: control group 13.70, normal group 0.38
Method: (§2) Male Sprague-Dawley rats (6 to 7 weeks of age, CLEA Japan) were used. The rats which passed about 1 week after their receipt were used in the test by 12 animals per group. The electric shock conditions were set in accordance with Example 1. That is, the rats were put into an electric shock device (17×17×39 cm, CB 2000 type, O'Hara) having an electrode set in the floor, and after 3 seconds of warning sound, their conditioning was carried out by applying an electric current of 2.5 mA for 5 seconds per minute per once, a total of 15 times, and irradiating light at the time of the electric shock using 3 electric bulbs of 40 w. The normal group was put into the electric shock device by the same protocol, but without applying the electric shock. From 20 to 24 hours thereafter, each drug to be tested was orally administered to each animal by force at a dose of 5 mL/kg, they were again put into the electric shock device 1 hour thereafter, and then a conditioned fear stress (CFS) loading was carried out by applying 3 seconds of warning sound and subsequent 5 seconds of light irradiation for 30 minutes.
Measurement of large intestine transport ability by a beads discharge method was carried out by modifying the method of Negri et al. (British Journal of Pharmacology, 1999, no. 128, p. 1554-60). That is, under light ether anesthesia, silicon beads (3 mm in diameter) were inserted in a length of 3 cm into the rectum side from the anus part using a silicon rod. After waking, the silicon rod was immediately removed to carry out CFS loading. The CFS loading starting time and silicon beads discharging time were recorded, and the measurement finishing time was set to 90 minutes in CFS group and 8 hours in normal group after the starting of the measurement. The distal large intestine transport ability (mm/min) was calculated as 30 mm÷required beads discharge time (min).

[3] = test system: conditioned fear stressed animal model (proximal large intestine transport); assay: Proximal large intestine transport ability by marker method after CFS loading; type: in vivo, rat; settings: 30 minutes after CFS loading
Method: as §2, with “test.” for “test by 12 animals per group.”
Measurement of proximal large intestine transport ability by a marker method was carried out by modifying the method of Kadowaki et al. (Journal of Pharmacology and Experimental Therapeutics, 1993, vol. 266, p. 74-80). That is, abdominal part of each rat was subjected to median incision (about 1 cm) under pentobarbital (50 mg/kg ip) anesthesia, and the ileocecal junction was extracted. A large intestinal part of about 1 cm from the connecting part was extracted from the neck by inserting canula (SP 50). The animals were individually reared for 5 days until the test, under conditions of free ingestion and free drinking. A Carmine Red solution (0.2 mL of 0.5% methyl cellulose solution containing 3 g of Carmine Red and 5 g of acacia) was injected trough the canula, CFS was loaded for 30 minutes by the aforementioned method, and then the animals were sacrificed by a decapitation device. By quickly carrying out median incision, large intestine starting part-anus part was extracted, and the whole length and marker shifting distance were measured using the canula insertion part as the starting point. The large intestine transport ability (%) was calculated as (marker shifting distance)÷(whole length)×100.

[4] = test system: conditioned fear stressed animal model (freezing behavior); assay: CFS-induced freezing behavior; type: in vivo, rat; settings: oral; for influence upon CFS-induced freezing behavior: 30 minutes observation after CFS loading, all of the doses tested
Description: as §1
Regarding the measurement of freezing behavior (freezing), a case of not moving at all during 30 seconds other than the movement accompanied by breathing was evaluated as the freezing behavior. The evaluation times were set to 0, 1, 3, 5, 7, 9, 12, 13, 14, 17, 18, 19, 22, 23, 24, 27, 28 and 29 minutes after the CFS loading, and the measurement was carried out at intervals of 30 seconds per minute. The ratio (%) of showing the freezing behavior by each animal was calculated in 3 plots of from 0 to 9 minutes (Block 1), from 10 to 19 minutes (Block 2) and from 20 to 29 minutes (Block 3) after the loading.

[5] = test system: conditioned fear stressed animal model; settings: cited from earlier work; for freezing behavior: reported in the literature (Non-patent References 4-7)

Cc1[nH]cnc1CN1CCc2c(c3ccccc3n2C)C1=O [Alosetron hydrochloride, alosetron hydrochloride]
ED50 value of the controlling ratio of wet feces weights increased by CFS loading [1]: 0.078 mg/kg
Distal large intestine transport ability ([2]; dose 0.3 mg/kg oral): 5.04* mm/min
proximal large intestine transport rate increased by the CFS loading ([3]; 0.3 mg/kg oral): lowered
influence upon CFS-induced freezing behavior [4]: did not exert influence

Cc1nccn1C[C@H]1CCc2c(c3cccc4c3n2CCC4)C1=O [Cilansetron hydrochloride, cilansetron hydrochloride]
ED50 value of the controlling ratio of wet feces weights increased by CFS loading [1]: 0.094 mg/kg
Distal large intestine transport ability ([2]; dose 0.3 mg/kg oral): 5.06** mm/min
proximal large intestine transport rate increased by the CFS loading ([3]; 0.3 mg/kg oral): lowered
influence upon CFS-induced freezing behavior [4]: did not exert influence

CN(C)C(=O)C(CCN1CCC(O)(c2ccc(Cl)cc2)CC1)(c1ccccc1)c1ccccc1 [Loperamide hydrochloride, loperamide hydrochloride]
ED50 value of the controlling ratio of wet feces weights increased by CFS loading [1]: 9.000 mg/kg
Distal large intestine transport ability ([2]; dose 10 mg/kg oral): 3.64** mm/min
proximal large intestine transport rate increased by the CFS loading ([3]; 10 mg/kg oral): lowered
freezing behavior-expressing time of 20 to 29 minutes after CFS loading (Block 3) ([4]; action significant at a dose of 30 mg/kg): dose-dependently prolonged

Cn1cc(C(=O)[C@@H]2CCc3nc[nH]c3C2)c2ccccc21 [Ramosetron hydrochloride, ramosetron hydrochloride]
ED50 value of the controlling ratio of wet feces weights increased by CFS loading [1]: 0.012 mg/kg
Distal large intestine transport ability ([2]; dose 0.1 mg/kg oral): 4.93** mm/min
proximal large intestine transport rate increased by the CFS loading ([3]; 0.1 mg/kg oral): lowered
influence upon CFS-induced freezing behavior [4]: did not exert influence

CN1C(=O)CN=C(c2ccccc2)c2cc(Cl)ccc21 [diazepam]
freezing behavior [5]: suppressed

CNCCC(Oc1ccc(C(F)(F)F)cc1)c1ccccc1 (centres unmarked) [fluoxetine]
freezing behavior [5]: suppressed
bowel movement ([5]; reported in the literature (Non-patent References 5-7)): suppressed

Cc1ncc2n1-c1ccc(Cl)cc1C(c1ccccc1F)=NC2 [midazolam]
freezing behavior [5]: suppressed
